Like-named read-outs stand apart in the source and are kept apart here.
Key:
HDAC6 = molecular target: T1, HDAC6 (Homo sapiens, UniProt Q9UBN7); test: HDAC biochemical assay (IC50), 384-well homogeneous; conditions: read-out: Biochemical inhibition of human HDACs (IC50) HDAC6
T1 sequence (Q9UBN7 1-1215): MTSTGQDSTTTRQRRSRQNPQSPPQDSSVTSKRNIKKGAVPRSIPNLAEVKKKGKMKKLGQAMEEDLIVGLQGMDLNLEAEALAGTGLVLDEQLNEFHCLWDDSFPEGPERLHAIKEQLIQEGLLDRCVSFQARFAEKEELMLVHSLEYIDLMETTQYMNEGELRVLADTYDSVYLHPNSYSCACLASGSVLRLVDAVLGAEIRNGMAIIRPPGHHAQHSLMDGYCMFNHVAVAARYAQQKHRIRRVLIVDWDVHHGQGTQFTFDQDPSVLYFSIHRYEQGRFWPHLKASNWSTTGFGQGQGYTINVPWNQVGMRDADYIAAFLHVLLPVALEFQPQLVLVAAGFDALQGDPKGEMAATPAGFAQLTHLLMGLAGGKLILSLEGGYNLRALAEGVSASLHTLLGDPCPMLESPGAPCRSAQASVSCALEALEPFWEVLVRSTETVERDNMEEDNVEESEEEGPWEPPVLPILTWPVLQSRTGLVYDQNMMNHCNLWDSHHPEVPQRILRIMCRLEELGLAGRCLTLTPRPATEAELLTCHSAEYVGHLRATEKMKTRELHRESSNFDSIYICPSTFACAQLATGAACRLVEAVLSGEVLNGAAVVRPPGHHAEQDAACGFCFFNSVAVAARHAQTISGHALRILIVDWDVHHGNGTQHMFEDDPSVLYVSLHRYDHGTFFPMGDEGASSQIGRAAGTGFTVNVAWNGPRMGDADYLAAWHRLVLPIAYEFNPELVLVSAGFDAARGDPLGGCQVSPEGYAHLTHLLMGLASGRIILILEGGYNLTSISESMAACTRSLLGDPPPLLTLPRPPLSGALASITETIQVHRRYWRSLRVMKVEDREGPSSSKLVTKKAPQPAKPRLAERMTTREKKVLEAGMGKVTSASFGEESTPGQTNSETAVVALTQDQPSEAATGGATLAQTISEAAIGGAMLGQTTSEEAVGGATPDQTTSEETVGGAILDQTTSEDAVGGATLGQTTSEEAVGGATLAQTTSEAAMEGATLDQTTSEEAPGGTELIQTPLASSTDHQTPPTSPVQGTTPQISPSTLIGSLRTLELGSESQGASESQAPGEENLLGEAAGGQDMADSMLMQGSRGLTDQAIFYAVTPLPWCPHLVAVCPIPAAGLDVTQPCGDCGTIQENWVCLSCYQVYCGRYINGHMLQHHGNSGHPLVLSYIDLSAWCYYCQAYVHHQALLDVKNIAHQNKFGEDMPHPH
Experimental: (§1) The inhibitory effect of compounds on deacetylase isoenzyme function was determined in vitro using an optimized homogenous assay performed in 384-well plate format. […] Data are analyzed on a plate-by-plate basis for the linear range of fluorescence over time. Data from the plate capture corresponding to the mid-linear range is imported into analytical software and annotated with well identity and compound concentration (Spotfire DecisionSite). Replicate experimental data from incubations with inhibitor are normalized to control, solvent-only wells and IC-50 is deteremined by logistic regression.
(§2) A liquid handling device then transferred a tripeptide substrate terminating in acetyl-lysine and amide conjugated to 4-methyl-7-aminocoumarin (AMC), recombinant human histone deacetylase (BPS Bioscience, San Diego, Calif.), and recombinant human trypsin (Sigma-Aldrich, St. Louis, Mo.). Following deacetylase hydrolysis of acetyl-lysine, trypsin cleavage liberated the AMC fluorophore. Kinetic (fluorescence per unit time) and end-point (total fluorescence) data were captured by a multilabel plate reader. Replicate data were analyzed by curve-fit using logistic regression (Snotfire Decision—Site).

HDAC1 = HDAC1 (Homo sapiens, UniProt Q13547); test: as above; conditions: reducing conditions (TCEP 200 μM); read-out: Biochemical inhibition of human HDACs (IC50) HDAC1
Sequence of HDAC1 (Q13547 whole entry): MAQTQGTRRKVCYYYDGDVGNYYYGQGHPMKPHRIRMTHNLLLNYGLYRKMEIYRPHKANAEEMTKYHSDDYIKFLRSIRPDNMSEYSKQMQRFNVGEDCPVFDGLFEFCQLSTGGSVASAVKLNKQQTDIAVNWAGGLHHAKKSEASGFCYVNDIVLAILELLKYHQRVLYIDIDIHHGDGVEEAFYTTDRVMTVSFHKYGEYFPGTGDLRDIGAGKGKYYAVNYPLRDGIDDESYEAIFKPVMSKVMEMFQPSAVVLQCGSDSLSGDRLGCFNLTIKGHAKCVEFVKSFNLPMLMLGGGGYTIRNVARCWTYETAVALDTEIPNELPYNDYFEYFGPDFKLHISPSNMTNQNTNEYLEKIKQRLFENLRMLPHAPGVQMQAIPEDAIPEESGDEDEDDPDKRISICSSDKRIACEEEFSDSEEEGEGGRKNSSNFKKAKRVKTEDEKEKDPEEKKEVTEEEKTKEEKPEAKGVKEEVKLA
Experimental: as §1, §2

HDAC3/NCor2 = HDAC3/NCor2 (Homo sapiens, UniProt O15379); test: as above; conditions: read-out: Biochemical inhibition of human HDACs (IC50) HDAC3
Sequence of HDAC3/NCor2 (O15379 whole entry): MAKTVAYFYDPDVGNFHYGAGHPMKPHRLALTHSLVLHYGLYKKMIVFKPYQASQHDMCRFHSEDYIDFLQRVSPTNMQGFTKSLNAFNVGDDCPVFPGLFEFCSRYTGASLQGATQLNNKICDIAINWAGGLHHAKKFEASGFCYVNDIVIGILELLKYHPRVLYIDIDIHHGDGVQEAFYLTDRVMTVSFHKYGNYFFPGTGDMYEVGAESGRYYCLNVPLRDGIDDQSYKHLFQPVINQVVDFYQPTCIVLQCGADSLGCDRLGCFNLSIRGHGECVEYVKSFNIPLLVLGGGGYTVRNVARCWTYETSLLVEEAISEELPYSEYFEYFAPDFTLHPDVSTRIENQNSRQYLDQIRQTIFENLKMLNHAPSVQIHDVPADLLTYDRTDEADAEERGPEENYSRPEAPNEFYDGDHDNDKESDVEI
Sequence of HDAC3/NCor2 (Q9Y618 395-489 partner limits assumed): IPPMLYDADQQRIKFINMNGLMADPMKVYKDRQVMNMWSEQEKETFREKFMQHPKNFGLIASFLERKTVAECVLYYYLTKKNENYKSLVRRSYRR
Experimental: as §1, §2

HDAC2 [1] = molecular target: T2, HDAC2 (Homo sapiens, UniProt Q92769); test: as above; conditions: reducing conditions (TCEP 200 μM); read-out: Biochemical inhibition of human HDACs (IC50) HDAC2
T2 sequence (Q92769 whole entry): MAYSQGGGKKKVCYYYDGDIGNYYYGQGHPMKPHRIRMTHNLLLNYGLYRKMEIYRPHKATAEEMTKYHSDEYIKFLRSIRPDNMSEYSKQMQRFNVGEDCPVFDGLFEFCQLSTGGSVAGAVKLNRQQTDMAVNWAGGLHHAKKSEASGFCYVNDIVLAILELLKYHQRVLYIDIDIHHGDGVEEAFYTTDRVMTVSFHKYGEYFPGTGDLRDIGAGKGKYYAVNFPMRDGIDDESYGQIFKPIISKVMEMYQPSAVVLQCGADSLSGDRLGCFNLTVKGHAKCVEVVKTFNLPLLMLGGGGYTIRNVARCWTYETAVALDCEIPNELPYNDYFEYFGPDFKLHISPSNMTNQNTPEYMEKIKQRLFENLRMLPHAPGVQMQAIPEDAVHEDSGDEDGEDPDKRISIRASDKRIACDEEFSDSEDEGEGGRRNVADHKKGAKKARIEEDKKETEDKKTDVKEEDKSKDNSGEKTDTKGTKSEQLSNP
Experimental: as §1, §2

HDAC2 [2] = molecular target: T2, HDAC2; test: HDAC2 inhibition, trypsin-coupled kinetic fluorescence homogeneous assay; type: biochemical
Experimental: To measure the inhibitory effect on deacetylase function in vitro, a continuous kinetic biochemical assay miniaturized to 384-well plate format was optimized.
Fluorescence measurements were obtained in real-time on a Varioskan microtiter plate reader (Thermo). Triplicate experimental data from incubations with inhibitor were normalized to solvent-only wells and analyzed by logistic regression (Spotfire DecisionSite).
A biochemical study of HDAC2 inhibition was carried out using the trypsin-coupled, kinetic fluorescence homogeneous assay described above.

[3] = amide bond, HATU, CH3CN
[4] = test system: human malignant melanoma cell lines; test: cell viability by ATP content (Cell TiterGlo), melanoma panel; type: cell-based; conditions: range over panel of human malignant melanoma cell lines, read-out: IC50 melanoma cell proliferation / viability
HDACs 1, 2 and 3 = test: HDAC biochemical assay, summary statements on Class I HDACs; parameters: species or system human
[5] = reducing conditions (TCEP 200 μM)
[6] = HDAC2, logistic fit of scatter plots, Conc (uM), read-out: X50 (curve fit, activity versus concentration)

With CC(C)C1NC(=O)C2CSC(=N2)c2csc(n2)CNC(=O)CC(C=CCCS)OC1=O (stereo not shown) [Cysteine substitution 22b] the IC50 (HDAC6; [5]) was 130 nM, the IC50 (HDAC1) was 1.9 nM and the IC50 (HDAC3/NCor2; [5]) was 3.8 nM. The IC50 (HDAC2 [1]) was 4.8 nM.
In the case of C[C@@]12CSC(=N1)c1csc(n1)CNC(=O)C[C@@H](/C=C/CCS)OC(=O)[C@@H]1CCCN1C2=O [Proline substitution (4)], the IC50 (HDAC6) is reported as 13000 nM, the IC50 (HDAC1) is reported as 110 nM and the IC50 (HDAC3/NCor2) is reported as 580 nM. The “X50 (curve fit, activity versus concentration)” value (HDAC2 [2]) was “X50 = 0.7733 uM” and the IC50 (HDAC2 [1]) was 800 nM.
With CCCCCCCC(=O)SCC/C=C/[C@@H]1CC(=O)NCc2nc(cs2)C2=N[C@@](C)(CS2)C(=O)N[C@@H](C(C)C)C(=O)N1 [ab6_1236 acyl amide] the “X50 (curve fit, activity versus concentration)” value (HDAC2 [2]; HDAC2, logistic fit of scatter plots, Conc (uM)) was “X50 = 1.677E12 uM”.
Compound CC(C)[C@@H]1NC(=O)[C@]2(C)CSC(=N2)c2csc(n2)CNC(=O)C[C@@H](C/C=C\CCC(=O)O)OC1=O [Largazole-Azumamide hybrid (9b)] has an IC50 (HDAC6; [5]) greater than 30000 nM, an IC50 (HDAC1) greater than 30000 nM and an IC50 (HDAC3/NCor2; [5]) greater than 30000 nM. For the same compound, the IC50 (HDAC2 [1]) was greater than 30000 nM.
Compound CC(C)[C@H]1NC(=O)[C@@]2(C)CSC(=N2)c2csc(n2)CNC(=O)C[C@H](/C=C/CCSC(c2ccccc2)(c2ccccc2)c2ccccc2)OC1=O has a ring closure, yield of all isomers ([3]; from CC(C)[C@@H](NC(=O)[C@@]1(C)CSC(c2csc(CNC(=O)OC(C)(C)C)n2)=N1)C(=O)O[C@@H](/C=C/CCSC(c1ccccc1)(c1ccccc1)c1ccccc1)CC(=O)OCC[Si](C)(C)C, 2 steps) of 87%.
Compound CCCCCCCC(=O)SCC/C=C/[C@@H]1CC(=O)NCc2nc(cs2)C2=N[C@@](C)(CS2)C(=O)N2CCC[C@H]2C(=O)O1 [ab6_161b Proline acyl] has an IC50 (HDAC2 [2]; [6]) of 708 µM.
For CC(C)[C@@H]1NC(=O)c2csc(n2)-c2csc(n2)CNC(=O)C[C@@H](/C=C/CCS)OC1=O [Thiazole-thiazole (23b)], the IC50 (HDAC2 [1]) was 120 nM.
In the case of CCCCCCCC(=O)SCCCCC=CC1CC(=O)NCc2nc(cs2)C2=NC(C)(CS2)C(=O)NC(C(C)C)C(=O)O1 (stereo not shown) [ab6_162b], the IC50 (HDAC2 [2]; [6]) is reported as 2.69 µM.
Compound CC(C)[C@@H]1NC(=O)[C@]2(C)CSC(=N2)c2csc(n2)CNC(=O)C[C@@H](/C=C/CCSC(c2ccccc2)(c2ccccc2)c2ccccc2)NC1=O has a ring closure, yield of all isomers ([3]; from COC(=O)C[C@@H](/C=C/CCSC(c1ccccc1)(c1ccccc1)c1ccccc1)NC(=O)[C@@H](NC(=O)[C@]1(C)CSC(c2csc(CNC(=O)OC(C)(C)C)n2)=N1)C(C)C, 0.94 mM, […], 3 steps) of 50%.
Work on CCCCCCCC(=O)SCC/C=C/[C@@H]1CC(=O)NCc2nc(cs2)C2=N[C@@](C)(CS2)C(=O)N[C@@H](C(C)C)C(=O)O1 [largazole (1), largazole, reference compound] yielded an IC50 (HDAC2 [2]) of 7.14 µM and an IC50 [4] of 45 to 315 nM.
For CC(C)C1NC(=O)C2(C)CSC(=N2)c2cccc(n2)CNC(=O)CC(C=CCCS)OC1=O (stereo not shown) [Thiazole-pyridine substitution (29b)], the IC50 (HDAC6; [5]) was 29 nM, the IC50 (HDAC3/NCor2; [5]) was 1.1 nM and the “activity against Class I HDACs” value (HDACs 1, 2 and 3) was “sub-nanomolar”.
Compound C[C@@]12CSC(=N1)c1csc(n1)CNC(=O)C[C@@H](/C=C/CCSC(c1ccccc1)(c1ccccc1)c1ccccc1)OC(=O)[C@@H]1CCCN1C2=O has a ring closure, yield of all isomers ([3]; from CC(C)(C)OC(=O)NCc1nc(C2=N[C@](C)(C(=O)N3CCC[C@H]3C(=O)O[C@H](/C=C/CCSC(c3ccccc3)(c3ccccc3)c3ccccc3)CC(=O)OCC[Si](C)(C)C)CS2)cs1, 0.83 mM, […], 2 steps) of 43%.

Source: US9186402B2 (Colorado State University Research Foundation, priority 2008, dated 2015)
